# Test results reported in ChEMBL document CHEMBL3507680, “University of Dundee, Gates Library screen for HepG2 cell viability”.
# Assay: Human HepG2 cell viability assay in 384 well format
# Format: toxicity, cell-based
# Set-up: dose 125 nL, time 70.5 hour; concentration not given beside the values
# Settings: HepG2 cells, read-out: Inhibition
row,Compound,cytotoxicity at 70.5 h [%]
1,CC(=O)N1Cc2ccccc2OC2(CCN(C(=O)C3CCOC3)CC2)C1 (stereo not given),-1.13
2,Cc1cnc(-c2nc(O)c3c(n2)CN(C(=O)C2CC2)CC3)cn1,-4.33
3,Cc1cnc(-c2nc(O)c3c(n2)CN(C(=O)C2CCCO2)CC3)cn1 (stereo not given),-1.18
4,COc1ccc(F)cc1-c1ccccc1CC1(C(=O)O)CCOCC1,27.6
5,Nc1cc(-c2cccs2)nn(CC(=O)N2CCc3ccccc32)c1=O,-2.52
6,Clc1cccc(Cl)c1CN(CCCN1CCOCC1)Cc1cccnc1,-11.4
7,O=C(Cc1cccc(O)c1)N1CCCC(O)(CN2CCOCC2)CC1 (stereo not given),0.936
8,Cc1ccc(N(C)[C@@H]2CC[C@@H]3CN(C(=O)Cc4cccs4)C[C@@H]32)nn1,-5.34
9,Cn1cc(CN2CCCC(c3nccnc3-c3cccc(F)c3)C2)cn1 (stereo not given),16.1
10,Cc1c[nH]nc1C1CCN(C(=O)CC2CCCC2)C1 (stereo not given),-6.41
11,COc1ccccc1C1Cn2c(C)cnc2CN1Cc1ccc(C)nc1 (stereo not given),22.5
12,CC(NC1(CNS(C)(=O)=O)CCCC1)c1ccccc1 (stereo not given),-16.9
13,Cc1ccc(CNCCC(O)(c2nccn2C)C(F)(F)F)o1 (stereo not given),-6.24
14,COCC1CCN(CCOc2ccc(C#N)cc2OC)CC1,20.7
15,CCC(NC(=O)c1ccc(COC)o1)c1nc(C(F)(F)F)cs1 (stereo not given),4.55
16,CNC(=O)CNC(=O)Nc1ccc(F)c(Br)c1,-2.46
17,O=C(NCCO)Nc1ccc(Br)c(F)c1,-0.649
18,CC(C)N(C(=O)c1ccnc(OCC(F)(F)F)c1)c1cccnc1,-12.7
19,Clc1ccc(N2CCN(CCCN3CCCCC3)CC2)nc1,7.35
20,N#Cc1ccc(CS(=O)(=O)NC(=O)c2ccc3c(c2)COC3)cc1,14.9
21,CC(C)CC1(C(=O)NCc2nncn2C2CC2)CCC1,1.12
22,CC(C)CC1(C(=O)NCCc2nncn2C2CC2)CCC1,-3.78
23,Cc1n[nH]c(-c2ccc(NC(=O)C(C)(C)N3CCN(C)CC3)cc2)n1,-7.96
24,CC(NCc1cccn1C)c1noc(-c2ccc(Cl)cc2)n1 (stereo not given),-9.95

row,Compound,cytotoxicity at 70.5 h [%]
1,CCn1cc(CNC(C)c2noc(-c3ccc(Cl)cc3)n2)cn1 (stereo not given),-3.37
2,O=C(NC1CC1)N(CCc1ccccc1)C1CCOC1 (stereo not given),12.1
3,Cc1nnc(NCc2ccc(F)cc2)o1,-2.93
4,CCc1ccc(C(=O)N(c2cccnc2)C(C)C)cc1S(C)(=O)=O,-8
5,CC(C)(C)c1nnc(NCc2ccc(F)cc2)o1,-2.71
6,COc1ccc(CNC(c2cccc(F)c2)c2cnn(C)c2)cc1 (stereo not given),-3.12
7,CN(C)CCNc1ncccc1CNC(=O)Nc1cc(F)cc(F)c1,-12
8,CNC(=O)c1cccc(CCNC2CCSc3ccccc32)c1 (stereo not given),-3.79
9,CNC(=O)c1cccc(CNC2CCSc3c(Cl)cccc32)c1 (stereo not given),35.4
10,COc1ccccc1CN1CCCC(n2cccn2)C1 (stereo not given),-1.34
11,O=C(CN1CCCCCC1=O)NC1CCc2nccn2C1 (stereo not given),-8.44
12,CC(C(=O)N(C)Cc1ccco1)n1cncn1 (stereo not given),1.02
13,CC(C)(C)OC(=O)N1CCCCC(NC(=O)CCc2cccnc2)C1 (stereo not given),-3.57
14,Cc1nnc(CSc2ccccn2)o1,-13.6
15,N#Cc1cn(C2CC2)c(=O)n(Cc2noc(-c3ccsc3)n2)c1=O,-14
16,O=C(CN1CCS(=O)(=O)CC1)Nc1ccc(N2CCCC2)nc1,-5.27
17,CS(=O)(=O)NC1CCN(C(=O)NCC2CCCO2)CC1 (stereo not given),-10.3
18,CC(C)(CNc1ccccc1S(=O)(=O)C(F)F)N1CCOCC1,-0.0351
19,CC(OCC1CC1)C(=O)N1CCCN(c2nc3ccccc3[nH]2)CC1 (stereo not given),-3.86
20,Cc1ccc(F)cc1S(=O)(=O)NCc1[nH]ncc1Br,-0.985
21,O=C(NC1=NCCS1)C1CSCN1C(=O)C1CCCC1 (stereo not given),-12.4
22,N#Cc1cn(C2CC2)c(=O)n(Cc2ncc(-c3cccs3)o2)c1=O,-13
23,CCOc1ccc(N(C)Cc2nnc(C)o2)cc1,19.3
24,CN(C)C(=O)CCNC(=O)Nc1sc2ccccc2c1Cl,-7.68

row,Compound,cytotoxicity at 70.5 h [%]
1,CS(=O)(=O)CCNC(=O)Nc1sc2ccccc2c1Cl,-11.7
2,O=C(CN1C(=O)CCCc2sccc21)NC1CCc2nccn2C1 (stereo not given),-1.68
3,CS(=O)(=O)CCCNC(=O)Nc1sc2ccccc2c1Cl,-4.03
4,Brc1cnc(NCCCOCC2CCOCC2)nc1,-5.42
5,c1cnc(NCCCOC2CCOCC2)nc1,4.17
6,NC(=O)COCCNC(=O)Nc1sc2ccccc2c1Cl,-9.32
7,CS(=O)(=O)NCc1ccc(C(=O)NCc2ccc3c(c2)CCC3)o1,-7.15
8,CCCC(O)CNc1cncc(Br)c1 (stereo not given),-5.08
9,Clc1cc(Cl)cc(CN2CCC(NCc3ncc[nH]3)CC2)c1,-4.36
10,COCCN1CC(C(=O)NCc2ccc(C)s2)CC1=O (stereo not given),-1.18
11,Cc1noc(CCCC(=O)N(CC2CCOC2)C2CC2)n1 (stereo not given),-11
12,CCN(CC1CCOC1)C(=O)CCc1nc(C(C)(C)C)no1 (stereo not given),-10.1
13,COC(=O)c1ncccc1N1CCN(C(=O)CN2CCOCC2)CC1,29.5
14,CN(CCSc1nncn1CC(F)(F)F)c1ccccc1,1.22
15,CN1CCN(C2CCN(Cc3cn4ccccc4n3)CC2)C1=O,19.5
16,Cc1cccn2cc(CN3CCC(N4CCN(C)C4=O)CC3)nc12,-6.74
17,COC(=O)c1ncccc1N1CCC(C(O)c2ccccc2)CC1 (stereo not given),-6.81
18,O=C(NCc1nnc2n1CCC2)c1cccc(Br)c1,-9.88
19,Cc1cc(C(=O)NC(C)Cc2cccc(Cl)c2)n(C)n1 (stereo not given),-2.61
20,CC(NC(=O)Nc1ccc(-c2csnn2)cc1)C(=O)NC(C)(C)C (stereo not given),-9.46
21,N#Cc1cc(S(N)(=O)=O)ccc1N1CCN(c2ccccc2)CC1,1.86
22,Oc1cccc(CNCc2ccc(-n3cncn3)nc2)c1,0.561
23,CN1CCN(c2ccc(F)cc2NC(=O)NCCn2ccnc2)CC1,-0.0867
24,N#Cc1ccc(CNCCc2cc(F)cc3c2OCOC3)cc1,7.73

row,Compound,cytotoxicity at 70.5 h [%]
1,CS(=O)(=O)NC(=O)c1ccn(-c2cccc(Br)c2)n1,-3.84
2,CC(C)(C)NC(=O)CNc1ccc(Br)cn1,0.762
3,CCN1CCN(c2ccccc2NC(=O)NCc2ccon2)CC1,-0.39
4,CCCn1ccnc1-c1cccc(NC(=O)[C@H]2CCC(=O)N2)c1,1.18
5,Fc1cc(CCNc2ccc3nccn3n2)c2c(c1)COCO2,5.74
6,Cc1nc(CNC(=O)Nc2cc(F)ccc2N2CCN(C)CC2)no1,-2.28
7,CC1CC(NS(=O)(=O)c2ccc(C(F)(F)F)nc2)C1 (stereo not given),26.5
8,CCCn1ccnc1-c1cccc(NC(=O)C2CCCOC2)c1 (stereo not given),-5.58
9,CN(C)CCN(Cc1cccc(F)c1)C(=O)c1ccn(C)c(=O)c1,-2.08
10,CC(C)(C)CN(CCC#N)C(=O)c1cccc(CC#N)c1,-3.08
11,OCc1cccc(OCc2ccon2)c1,-3.01
12,CN(CCSc1nncn1C(C)(C)C)c1ccccc1,31
13,N#CCCN(Cc1ccccn1)C(=O)c1cccc(CN2CCCC2)c1,-1.86
14,CC(C#N)(NC(=O)c1ccc(C#N)cc1)C1CC1 (stereo not given),-0.776
15,CC(NC(=O)CNc1cc2c(cc1Cl)NC(=O)CO2)c1ccco1 (stereo not given),14.6
16,CCOc1cc(CNC(=O)CNC(=O)CC2CCCCC2)ccn1,-6.29
17,COc1ccc2cc(C(=O)NCCc3nc(C)no3)[nH]c2c1,5.04
18,CCc1ccc(NC(C(N)=O)c2ccc(F)cc2)cc1 (stereo not given),-5.1
19,COc1ccc(-c2nc(CCNC(=O)NCC3CCOC3)co2)cc1 (stereo not given),-11.8
20,CC(=O)NCCCNC(=O)N(C)C(C)Cc1ccc(Cl)cc1 (stereo not given),-8.06
21,CC(O)(CNC(=O)NCCc1ccc2c(c1)CCO2)c1ccsc1 (stereo not given),1.66
22,NC(=O)C1CCCN1C(=O)c1cc(C2CC2)nc2ccc(F)cc12 (stereo not given),18.9
23,COc1ccc(Cl)cc1CCNC(=O)NCc1noc(C)n1,-3.63
24,COc1ccccc1OCC(=O)NS(=O)(=O)c1cccnc1,-8.19

row,Compound,cytotoxicity at 70.5 h [%]
1,Cc1noc(CCCC(=O)NCCc2cc3ccccc3[nH]2)n1,-6.92
2,COc1ccc(Cl)cc1CCNC(=O)NCc1cnn(C)c1C,-4.39
3,N#CC(NC(=O)CC(F)(F)F)c1ccsc1 (stereo not given),-7.23
4,CC(NC(=O)CCn1cccn1)c1ccc(-n2ccnn2)cc1 (stereo not given),15.4
5,CCN(CC)C1CCN(C(=O)NCc2cccc(NC(C)=O)c2)C1 (stereo not given),-6.18
6,COc1cc(C)ccc1OCCC(=O)N1CCC(N2CC=CC2)C1 (stereo not given),-2.75
7,CC(C)Oc1ccc(CN)c(C(F)(F)F)c1,-7.67
8,CCCS(=O)(=O)N1CCN(CCCO)CC1,0.836
9,Cc1cnn(C2CN(CCOc3ccc(C#N)cc3)C2)c1,-5.99
10,Cc1cn2nc(N(C)C3CCCN(c4cccnn4)C3)sc2n1 (stereo not given),-11.5
11,CC(NC(=O)N1CCCC1)c1ccc(S(N)(=O)=O)cc1 (stereo not given),-13
12,CN(C)c1ccc(C(=O)Nc2ccn(CC(N)=O)n2)cn1,-8.63
13,CN(C)c1ccc(C(=O)Nc2ccn(CCc3ccncc3)n2)cc1,15
14,Cc1nc2n(n1)CC(NCc1ccc(Cl)c3cccnc13)CC2 (stereo not given),-8.23
15,Cc1cc(C[S+]([O-])Cc2ccccc2F)no1 (stereo not given),16.6
16,Cc1ccc(N2CCCC(N(C)c3nn4cc(C)nc4s3)C2)nn1 (stereo not given),-3.89
17,COC(=O)NCC(=O)NC1(C)CCc2ccccc2C1 (stereo not given),-8.98
18,O=C1CN(c2ccc(C(=O)N3CCc4ccccc43)cn2)CCN1,-6.79
19,CN(C)c1ccc(C(=O)Nc2ccn(CCc3ccncc3)n2)cn1,0.589
20,CC(C)Cn1ncc(C(=O)O)c1C1CC1,-5.02
21,CN(C)Cc1cc(C2CCCCN2S(=O)(=O)c2cccc(Cl)c2)nn1C (stereo not given),-3.27
22,c1cc(CNCc2ccc(-n3cncn3)nc2)cc(OC2CCCC2)c1,-6.11
23,Cc1cc(N(C)C)nc(C2CCNC2)n1 (stereo not given),45.3
24,CCc1ncc(CN(C)C2CCN(C(C)C)CC2)cn1,13.4
